# Measured values as given in PubChem BioAssay (NCI).
# Values joined by “and” are separate entries in the source; they are usually repeats but may differ in a detail not shown here. Equal entries are not always repeated.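 The compound was tested at five concentrations on cells cultured in 96-well plates, with a 48-hour exposure period. At the GI50, growth is halved. TGI: total growth inhibition.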 Residues, ends and D or L forms follow the SMILES beside them. *: point of attachment. Cbz = O=C(OCc1ccccc1)*
# Columns and labels:
# Test in all cases: DTP human tumour cell line panel, 48 h
# [1] = tested on: HCT-116 colon
# [2] = tested on: MDA-MB-231 breast
# [3] = tested on: OVCAR-4 ovarian
# [4] = tested on: SF-295 CNS
# [5] = tested on: SNB-19 CNS
# [6] = tested on: SR leukemia
# [7] = tested on: TK-10 renal
# [8] = tested on: KM12 colon
SMILES,GI50 [1],TGI [1],GI50 [2] [nM],TGI [2] [µM],GI50 [3] [nM],TGI [3] [µM],GI50 [4],TGI [4],GI50 [5],TGI [5] [µM],GI50 [6] [nM],TGI [6] [µM],GI50 [7],TGI [7],GI50 [8] [µM],TGI [8]
CN(C)CCS(=O)(=O)Nc1cc(-c2ccc3ncc(C#N)c(Nc4ccc(F)c(Cl)c4)c3c2)cnc1Cl,214 nM,0.69 µM,185,0.629,382,10.3,0.366 µM,2.4 µM,0.248 µM,2.94,282,> 100,0.155 µM,0.762 µM,,
CCOC(=O)c1cc(NS(=O)(=O)c2ccc(C)cc2)cc(C(=O)OCC)c1,39500 nM,> 100 µM,34900,> 100,21200,85.5,44.9 µM,> 100 µM,76.1 µM,> 100,34400,> 100,> 100 µM,> 100 µM,55.9,> 100 µM
Nc1ncn([C@H]2C[C@H](OP(=O)(O)OC[C@H]3O[C@@H](n4cnc5c(=O)[nH]c(N)nc54)C[C@@H]3O)[C@@H](CO)O2)c(=O)n1,23000 nM,> 100 µM,> 100000,> 100,> 100000,> 100,> 100 µM,> 100 µM,> 100 µM,> 100,> 100000,> 100,> 100 µM,> 100 µM,,
O=C1c2c(Cl)c(Cl)c(Cl)c(Cl)c2C(=O)C2(Cl)CC=CCC12Cl (stereo not drawn),1760 nM,3.32 µM,1710,3.13,1900,3.41,3.35 µM,11.2 µM,1.64 µM,3.01,1150,4.38,2.06 µM,3.57 µM,1.84,3.56 µM
Cc1cccc(Cl)c1NC(=O)c1cnc(Nc2cc(N3CCOCC3)cc(S(C)(=O)=O)c2)s1,313 nM,> 10 µM,141,> 3.4,> 10000,> 10,> 4.23 µM,> 10 µM,> 4.95 µM,> 10,> 10000,> 10,0.132 µM,1.15 µM,> 10,> 10 µM
O=C1NC(=NCCc2ccccn2)S/C1=C\c1ccc2ncccc2c1,8250 nM,> 25 µM,18500,> 25,14100,> 25,> 16.1 µM,> 25 µM,11.1 µM,> 25,4210,14,7.33 µM,24.5 µM,18.2,> 25 µM
COc1ccc2c(c1)C(c1cc(OC)c3c(c1)OCO3)C1=C(COC1=O)N2 (stereo not drawn),417 nM,> 34.8 µM,654,> 39.8,1280,> 100,0.0919 µM,> 34 µM,0.468 µM,> 100,183,> 100,,> 77.2 µM,0.227,3.25 µM
COC(=O)CNc1nc(N(C)O)nc(N(C)O)n1,1980 nM,> 100 µM,4160,> 100,2850,> 100,2.92 µM,> 100 µM,27.3 µM,> 100,,,1.61 µM,> 100 µM,5.65,> 100 µM
COc1cc2c(c(OC)c1OC)-c1c(c3ccc([N+](=O)[O-])cc3c(=O)n1CCCN)C2=O,828 nM,1.53 µM,908,1.74,2900,12.9,1.86 µM,7.82 µM,,,,,9.89 µM,18.7 µM,6.64,18.1 µM
COc1cc2nc3cc([N+](=O)[O-])ccc3c(NCCNCC(C)O)c2cc1OC (stereo not drawn),358 nM,1.75 µM,604,3.08,886,2.92,0.484 µM,3.34 µM,0.436 µM,2.74,286,2.16,1.72 µM,5.71 µM,0.619,2.87 µM
CC(C)C[C@@H](C=O)NC(=O)[C@H](CC(C)C)NC(=O)[C@H](CC(C)C)NC(=O)OCc1ccccc1 (Cbz-Leu-Leu-Leu-aldehyde),294 nM,1.04 µM,328,1.21,,,0.39 µM,1.77 µM,0.829 µM,> 100,366,86.6,0.27 µM,0.893 µM,0.281,0.751 µM
Cn1cc(C2=C(c3cn(CCCCCO)c4ccccc34)C(=O)NC2=O)c2ccccc21,4670 nM,> 25 µM,8930,> 24,5110,17.5,4.5 µM,13.9 µM,8.41 µM,> 23.2,1570,11,6.11 µM,16 µM,4.22,16.1 µM
CN(C)Cc1c(C(=O)NCCOc2ccc(C(=O)NO)cc2)oc2ccccc12,70.5 nM,0.502 µM,392,18.2,269,> 71.3,0.225 µM,0.713 µM,0.453 µM,13.9,203,12.4,0.185 µM,0.88 µM,0.312,2.34 µM
NCCSC(c1ccccc1)(c1ccccc1)c1ccccc1,373 nM,1.49 µM,607,2.33,2940,12.9,0.967 µM,2.76 µM,5.36 µM,20.1,340,1.82,,,1.84,4.82 µM
CN1C(=O)C2(c3ccccc31)C1CC3C(CO1)C1C2C3(CO)CN1C#N (stereo not drawn),,> 100 µM,,> 100,,> 100,,> 100 µM,,> 100,,> 100,,> 100 µM,,> 100 µM
CC(=O)OCC1OC(n2ncc(=O)[nH]c2=O)C(OC(C)=O)C1OC(C)=O (stereo not drawn),,> 100 µM,,,,> 100,,> 100 µM,,,,> 100,,> 100 µM,,> 100 µM

SMILES,GI50 [1],TGI [1],GI50 [2] [nM],TGI [2] [µM],GI50 [3] [nM],TGI [3] [µM],GI50 [4],TGI [4],GI50 [5],TGI [5] [µM],GI50 [6] [nM],TGI [6] [µM],GI50 [7],TGI [7],GI50 [8] [µM],TGI [8]
CCCN(CCC)c1ccc(C=O)c(C)c1,35000 nM,> 100 µM,41300,> 100,21500,> 100,29.1 µM,> 100 µM,60.9 µM,> 100,40300,> 100,41.6 µM,> 100 µM,44.7,> 100 µM
CC1(C)CCC(C)(C)c2cc(NC(=O)c3ccc(C(=O)O)cc3)ccc21,,55.7 µM,,> 90.5,,> 100,,68.2 µM,,99.3,,> 100,,85.3 µM,,59.5 µM
COc1cc(/C=C/C(=O)c2c(-c3ccc(F)cc3)nc3sc(C)nn23)cc(OC)c1OC,1640 nM,3.07 µM,1990,8.51,3610,85.6,4.03 µM,15.9 µM,3.24 µM,13.1,1770,5.27,2.92 µM,8.14 µM,1.97,4.59 µM
CN(C)CCOc1ccccc1NC1=C(Cl)C(=O)C(Nc2ccccc2OCCN(C)C)=C(Cl)C1=O,518 nM,1.01 µM,2210,6.61,473,0.896,> 38.4 µM,> 65.9 µM,24.9 µM,> 49.8,5120,> 100,5.73 µM,12.4 µM,20.9,> 100 µM
COc1ccc(NC(=O)c2ccc(NC3=C(Cl)C(=O)N(Cc4ccccc4)C3=O)cc2)c(OC)c1,5400 nM,25.6 µM,> 100000,> 100,61800,> 100,25.7 µM,99.1 µM,57.4 µM,> 100,1390,3.98,22.8 µM,> 100 µM,27.7,92.8 µM
O=[N+]([O-])c1ccc2c(c1)C(c1ccccc1Cl)=Nc1c(n[nH]c1-c1cccnc1)N2,> 25000 nM,> 25 µM,> 25000,> 25,> 19800,> 25,> 25 µM,> 25 µM,> 25 µM,> 25,> 25000,> 25,> 25 µM,> 25 µM,9.41,> 25 µM
COc1cc(C2CC(=O)Nc3c2c(C)nn3-c2nc3ccccc3[nH]2)cc(OC)c1O (stereo not drawn),3450 nM,> 100 µM,2980,8.15,2430,11.4,1.33 µM,3.71 µM,3.5 µM,> 100,3350,14.5,2.84 µM,7.67 µM,3.26,12.4 µM
CN(C)CCNC(=O)c1ccc2oc3cc4ccccc4c(=O)n3c2c1,41600 nM,> 100 µM,31800,> 100,7600,> 100,28 µM,> 100 µM,40.9 µM,> 100,32900,> 100,21.6 µM,72.3 µM,10.5,77.8 µM
NC(N)=Nc1ccc(/C=C2\C=Cc3ccccc32)cc1,1550 nM,2.93 µM,1710,3.83,2890,15.1,7.28 µM,24.6 µM,6.32 µM,32.5,2500,6.85,2.02 µM,4.04 µM,1.85,3.51 µM
[Cu+2].[NH-]C(CC(=O)O)C(=O)O.[NH-]C(CC(=O)O)C(=O)O (stereo not drawn),> 100000 nM,> 100 µM,> 100000,> 100,99200,> 100,> 100 µM,> 100 µM,49.5 µM,> 100,> 100000,> 100,> 100 µM,> 100 µM,> 100,> 100 µM
Cc1[nH]nc2ncc(C(=O)N3CCC[C@H]3c3ccc(Cl)cc3)cc12,33100 nM,> 100 µM,> 100000,> 100,96600,> 100,63.5 µM,> 100 µM,> 100 µM,> 100,,,94.2 µM,> 100 µM,51.6,> 100 µM
Cc1c2c(nn1-c1ccc(S(=O)(=O)NC(=S)NC(=O)c3ccccc3)cc1)-c1ccccc1CC2,,,42500,> 100,> 100000,> 100,17.4 µM,48.6 µM,96.4 µM,> 100,759,> 100,28.9 µM,78.5 µM,34.5,> 100 µM
CN1CCN(CCCN2c3ccccc3Sc3ccc(Cl)cc32)CC1,5150 nM and 39900 nM,12 µM and 54.2 µM,,,5740,12.4,6 µM and 33.2 µM,12.8 µM and 55.6 µM,7.05 µM and 60.7 µM,14.3,2990,11.3,7.18 µM and 51.8 µM,14.1 µM and 89 µM,,12.4 µM and 95.2 µM
COc1ccc(-c2[nH]nc(N)c2-c2cc(OC)c(OC)c(OC)c2)cc1,41.7 nM,42.6 µM,74,> 100,1620,> 100,0.0248 µM,> 100 µM,0.519 µM,> 100,28.5,> 42,,,0.0246,9.79 µM
Cc1ccc(OCCOCCOCCOCCOCCOc2ccc(C)n(O)c2=S)c(=S)n1O,30.2 nM,27.5 µM,62,> 100,33.9,49.5,0.0378 µM,> 43.6 µM,0.118 µM,> 100,,,0.0826 µM,> 100 µM,0.0573,39.1 µM
Cc1sc2c(c1C)C(c1ccc(Cl)cc1)=N[C@@H](CC(=O)NCCCN1CCN(C)CC1)c1nnc(C)n1-2,579 nM,> 100 µM,198,> 100,748,> 100,8.12 µM,> 100 µM,0.987 µM,> 100,108,> 100,,,19.6,> 100 µM
